How the values were obtained:
Type in all cases: cell-based, E. coli
Details in all cases: Escherichia coli
[1] = test system: wildtype TEM-1 (allele: none); test: MIC assay on agar plates, cells with TEM-1 (no mutation)
Procedure: (§1) Selected single base mutations were re-introduced into TEM-1 by site-directed PFunkel mutagenesis on the 20 μL volume scale. The MIC for ampicillin and piperacillin of the mutants was assessed with and without 6 μg/mL tazobactam by spotting 10^4 CFU on Mueller-Hinton agar plates containing 50 μg/mL Spec, 300 μM IPTG, and √2-fold increments of either ampicillin or piperacillin. Plates were incubated at 37° C. for 12 hrs.

[2] = test system: TEM-1 N276D allele; test: MIC assay on agar plates, TEM-1 allele N276D
Procedure: as §1

[3] = test system: TEM-1 R244S allele; test: MIC assay on agar plates, TEM-1 allele R244S
Procedure: as §1

[4] = test system: TEM-1 Y105N allele; test: MIC assay on agar plates, TEM-1 allele Y105N
Procedure: as §1

[5] = test system: TEM-1 M69L allele; test: MIC assay on agar plates, TEM-1 allele M69L
Procedure: as §1

[6] = test system: TEM-1 Y105D allele; test: MIC assay on agar plates, TEM-1 allele Y105D
Procedure: as §1

[7] = test system: TEM-1 S235T allele; test: MIC assay on agar plates, TEM-1 allele S235T
Procedure: as §1

[8] = test system: TEM-1 Y105S allele; test: MIC assay on agar plates, TEM-1 allele Y105S
Procedure: as §1

[9] = + tazobactam 6 μg/mL, median of three replicates
[10] = + tazobactam 6 μg/mL, replicate 1
[11] = + tazobactam 6 μg/mL, replicate 2
[12] = + tazobactam 6 μg/mL, replicate 3
[13] = − tazobactam, median of three replicates

SMILES: CCN1CCN(C(=O)N[C@@H](C(=O)N[C@@H]2C(=O)N3[C@@H]2SC(C)(C)[C@@H]3C(=O)O)c2ccccc2)C(=O)C1=O [piperacillin]
- MIC [1, 9]: 1.4 µg/mL
- MIC [1, 10]: 1 µg/mL
- MIC [1, 11]: 1.4 µg/mL
- MIC [1, 12]: 1.4 µg/mL
- MIC [1, 13]: 2900 µg/mL
- MIC ([1]; − tazobactam, replicate 1): 2900 µg/mL
- MIC ([1]; − tazobactam, replicate 2): 2900 µg/mL
- MIC ([1]; − tazobactam, replicate 3): 2900 µg/mL
- MIC [2, 9]: 1.4 µg/mL
- MIC [2, 10]: 1 µg/mL
- MIC [2, 11]: 1.4 µg/mL
- MIC [2, 12]: 2 µg/mL
- MIC [2, 13]: 2900 µg/mL
- MIC ([2]; − tazobactam, replicate 1): 2900 µg/mL
- MIC ([2]; − tazobactam, replicate 2): 2900 µg/mL
- MIC ([2]; − tazobactam, replicate 3): 2900 µg/mL
- MIC [3, 9]: 2 µg/mL
- MIC [3, 10]: 2 µg/mL
- MIC [3, 11]: 2.83 µg/mL
- MIC [3, 12]: 2 µg/mL
- MIC [3, 13]: 1450 µg/mL
- MIC ([3]; − tazobactam, replicate 1): 1020 µg/mL
- MIC ([3]; − tazobactam, replicate 2): 1450 µg/mL
- MIC ([3]; − tazobactam, replicate 3): 1450 µg/mL
- MIC [4, 9]: 45 µg/mL
- MIC [4, 10]: 32 µg/mL
- MIC [4, 11]: 45 µg/mL
- MIC [4, 12]: 45 µg/mL
- MIC [4, 13]: 2050 µg/mL
- MIC ([4]; − tazobactam, replicate 1): 2050 µg/mL
- MIC ([4]; − tazobactam, replicate 2): 2050 µg/mL
- MIC ([4]; − tazobactam, replicate 3): 2050 µg/mL
- MIC [5, 9]: 22.6 µg/mL
- MIC [5, 10]: 22.6 µg/mL
- MIC [5, 11]: 32 µg/mL
- MIC [5, 12]: 22.6 µg/mL
- MIC [5, 13]: 2900 µg/mL
- MIC ([5]; − tazobactam, replicate 1): 2050 µg/mL
- MIC ([5]; − tazobactam, replicate 2): 2900 µg/mL
- MIC ([5]; − tazobactam, replicate 3): 2900 µg/mL
- MIC [6, 9]: 1 µg/mL
- MIC [6, 10]: 1 µg/mL
- MIC [6, 11]: 1 µg/mL
- MIC [6, 12]: 1 µg/mL
- MIC [6, 13]: 1.4 µg/mL
- MIC ([6]; − tazobactam, replicate 1): 1.4 µg/mL
- MIC ([6]; − tazobactam, replicate 2): 1.4 µg/mL
- MIC ([6]; − tazobactam, replicate 3): 1.4 µg/mL
- MIC [7, 9]: 22.6 µg/mL
- MIC [7, 10]: 32 µg/mL
- MIC [7, 11]: 16 µg/mL
- MIC [7, 12]: 22.6 µg/mL
- MIC [7, 13]: 2900 µg/mL
- MIC ([7]; − tazobactam, replicate 1): 2900 µg/mL
- MIC ([7]; − tazobactam, replicate 2): 2900 µg/mL
- MIC ([7]; − tazobactam, replicate 3): 2900 µg/mL
- MIC [8, 9]: 16 µg/mL
- MIC [8, 10]: 16 µg/mL
- MIC [8, 11]: 16 µg/mL
- MIC [8, 12]: 16 µg/mL
- MIC [8, 13]: 1450 µg/mL
- MIC ([8]; − tazobactam, replicate 1): 1020 µg/mL
- MIC ([8]; − tazobactam, replicate 2): 1450 µg/mL
- MIC ([8]; − tazobactam, replicate 3): 1450 µg/mL

SMILES: CC1(C)S[C@@H]2[C@H](NC(=O)[C@H](N)c3ccccc3)C(=O)N2[C@H]1C(=O)O [ampicillin]
- MIC [1, 9]: 22.6 µg/mL
- MIC [1, 10]: 16 µg/mL
- MIC [1, 11]: 22.6 µg/mL
- MIC [1, 12]: 22.6 µg/mL
- MIC [1, 13]: 8190 µg/mL
- MIC ([1]; − tazobactam, replicate 1): 8190 µg/mL
- MIC ([1]; − tazobactam, replicate 2): 8190 µg/mL
- MIC ([1]; − tazobactam, replicate 3): 8190 µg/mL
- MIC [2, 9]: 90.5 µg/mL
- MIC [2, 10]: 90.5 µg/mL
- MIC [2, 11]: 90.5 µg/mL
- MIC [2, 12]: 128 µg/mL
- MIC [2, 13]: 8190 µg/mL
- MIC ([2]; − tazobactam, replicate 1): 8190 µg/mL
- MIC ([2]; − tazobactam, replicate 2): 8190 µg/mL
- MIC ([2]; − tazobactam, replicate 3): 8190 µg/mL
- MIC [3, 9]: 90.5 µg/mL
- MIC [3, 10]: 64 µg/mL
- MIC [3, 11]: 128 µg/mL
- MIC [3, 12]: 90.5 µg/mL
- MIC [3, 13]: 4100 µg/mL
- MIC ([3]; − tazobactam, replicate 1): 2900 µg/mL
- MIC ([3]; − tazobactam, replicate 2): 4100 µg/mL
- MIC ([3]; − tazobactam, replicate 3): 4100 µg/mL
- MIC [4, 9]: 1450 µg/mL
- MIC [4, 10]: 148 µg/mL
- MIC [4, 11]: 1450 µg/mL
- MIC [4, 12]: 1450 µg/mL
- MIC [4, 13]: 5790 µg/mL
- MIC ([4]; − tazobactam, replicate 1): 4100 µg/mL
- MIC ([4]; − tazobactam, replicate 2): 5790 µg/mL
- MIC ([4]; − tazobactam, replicate 3): 5790 µg/mL
- MIC [5, 9]: 724 µg/mL
- MIC [5, 10]: 512 µg/mL
- MIC [5, 11]: 724 µg/mL
- MIC [5, 12]: 724 µg/mL
- MIC [5, 13]: 8190 µg/mL
- MIC ([5]; − tazobactam, replicate 1): 5790 µg/mL
- MIC ([5]; − tazobactam, replicate 2): 8190 µg/mL
- MIC ([5]; − tazobactam, replicate 3): 8190 µg/mL
- MIC [6, 9]: 256 µg/mL
- MIC [6, 10]: 256 µg/mL
- MIC [6, 11]: 256 µg/mL
- MIC [6, 12]: 362 µg/mL
- MIC [6, 13]: 1450 µg/mL
- MIC ([6]; − tazobactam, replicate 1): 1450 µg/mL
- MIC ([6]; − tazobactam, replicate 2): 1450 µg/mL
- MIC ([6]; − tazobactam, replicate 3): 1450 µg/mL
- MIC [7, 9]: 362 µg/mL
- MIC [7, 10]: 256 µg/mL
- MIC [7, 11]: 362 µg/mL
- MIC [7, 12]: 512 µg/mL
- MIC [7, 13]: 8190 µg/mL
- MIC ([7]; − tazobactam, replicate 1): 8190 µg/mL
- MIC ([7]; − tazobactam, replicate 2): 8190 µg/mL
- MIC ([7]; − tazobactam, replicate 3): 8190 µg/mL
- MIC [8, 9]: 1020 µg/mL
- MIC [8, 10]: 724 µg/mL
- MIC [8, 11]: 1020 µg/mL
- MIC [8, 12]: 1020 µg/mL
- MIC [8, 13]: 2900 µg/mL
- MIC ([8]; − tazobactam, replicate 1): 2900 µg/mL
- MIC ([8]; − tazobactam, replicate 2): 2900 µg/mL
- MIC ([8]; − tazobactam, replicate 3): 2900 µg/mL
